From the NIST ThermoML archive (doi:10.1016/j.jct.2013.08.016)
Numbers after ± are expanded uncertainties.

How the values were obtained:
[1] = refractive index (Na D-line) (dimensionless); mn = molality of the nth substance listed, in mol/kg; settings: 101.3 kPa, Liquid, Standard Abbe refractometry, m2 = 0
[2] = mn = molality of the nth substance listed, in mol/kg; settings: 101.3 kPa, Liquid, m2 = 0; for viscosity: Capillary tube (Ostwald / Ubbelohde) method; for mass density: Pycnometric method; for speed of sound: Single path-length method
[3] = refractive index (Na D-line) (dimensionless); settings: 101.33 kPa, Liquid, Standard Abbe refractometry
[4] = 101.3 kPa, Liquid, Capillary tube (Ostwald / Ubbelohde) method

Row | refractive index ([1]; 278.15 K) | refractive index ([1]; 288.15 K) | refractive index ([1]; 298.15 K) | viscosity ([2]; 278.15 K) [mPa·s] | mass density ([2]; 278.15 K) [kg/m3] | speed of sound ([2]; 278.15 K) [m/s] | viscosity ([2]; 288.15 K) [mPa·s] | viscosity ([2]; 298.15 K) [mPa·s] | refractive index ([3]; 278.15 K) | refractive index ([3]; 288.15 K) | refractive index ([3]; 298.15 K) | viscosity ([4]; 278.15 K) [mPa·s] | viscosity ([4]; 288.15 K) [mPa·s] | viscosity ([4]; 298.15 K) [mPa·s] | Structure (SMILES)
1 | 1.3339 ± 0.0005 | 1.3334 ± 0.0005 | 1.3325 ± 0.0005 | 1.519 ± 0.032 | 999.96 ± 0.37 | 1426.2 ± 2.2 | 1.138 ± 0.025 | 0.8903 ± 0.019 | – | – | – | – | – | – | O [water] + O=C1O[C@H]([C@@H](O)CO)C(O)=C1O
2 | – | – | – | – | – | – | – | – | 1.3339 ± 0.0005 | 1.3334 ± 0.0005 | 1.3325 ± 0.0005 | 1.519 ± 0.032 | 1.138 ± 0.025 | 0.8903 ± 0.019 | O [water]
3 | 1.3339 ± 0.0005 | 1.3334 ± 0.0005 | 1.3325 ± 0.0005 | 1.519 ± 0.032 | 999.96 ± 0.38 | 1426.2 ± 2.2 | 1.138 ± 0.025 | 0.8903 ± 0.019 | – | – | – | – | – | – | O [water] + O=C1O[C@H]([C@@H](O)CO)C([O-])=C1O.[Na+]
